Reference: patent US12383533B2 (Frost Biologic, Inc., priority 2014, dated 2025)

Legend:
[1] = system: porcine neuronal tubulin; assay: Tubulin Polymerization Assay; assay type: biochemical; settings: porcine tubulin 2.0 mg/ml, 37° C., fluorescence; read-out: IC50 (tubulin polymerization, from Vmax)
Description: Tubulin Polymerization Assay
The Tubulin Polymerization Assay uses porcine neuronal tubulin and measurements are based on fluorescence enhancement due to the incorporation of a fluorescent reporter into microtubules as polymerization occurs. The assay generates a polymerization curve representing the three phases of microtubule formation (nucleation, growth and equilibrium). IC50 values for tested compounds can be generated from the observed polymerization curves.
Procedure: All compounds dilutions (in DMSO) were prepared prior to the following steps. A Molecular Devices M2 plate reader was set to 37° C. Once the internal temperature of the plate reader reached 37° C. a 96 well plate (Corning Costar, at. #3686) was placed in the fluorimeter and allowed to warm to 37° C. for 30 minutes. A total of 10 mg of porcine tubulin was resuspended in […] of Polymerization Buffer [Buffer 1 (80 mM PIPES pH 6.9, 2.0 mM MgCl2, 0.5 mM EGTA, 1.0 mM GTP and 10 μM fluorescent reporter) supplemented with 20% glycerol] to generate a 2.0 mg/ml tubulin stock and this was kept on ice. The 50× compound stocks in 100% DMSO were spotted 1 μl/well in duplicate into the wells of the 96-well plate at 37° C. and allowed to re-warm for 5 minutes at 37° C. During this incubation the 2.0 mg/ml tubulin stock was placed in a disposable plastic trough and allowed to warm briefly at room temperature. To initiate the reaction, 50 μl/well of 2.0 mg/ml tubulin in Polymerization Buffer was added to each well using a multi-channel pipettor and the fluorescence measurements were started immediately.
The maximal velocity (Vmax) of tubulin polymerization was determined using linear regression of the averaged fluorescence data at each time point using GraphPad Prism 5.0 software. The Vmax determinations for each compound at each concentration were then normalized to reactions that contained DMSO (2% final concentration) but no test compounds. This converted the data to % Activity, which refers to the percent of the Vmax of an uninhibited reaction. The concentration response curves were then plotted as the % Activity versus the Log 10 of the compound concentration in micromolar and fit by non-linear regression to a 4-parameter sigmoidal dose-response equation using GraphPad Prism 5.0 software to determine the IC50 for each compound.

[2] = system: MCF-7 cells; assay: Cell Viability Assay (ATPlite 1step), MCF-7; assay type: cell-based; settings: Homo sapiens, MCF7, 72 hours; for percent inhibition of cell viability at 4 µM: MCF-7, 4 uM compound, read-out: Cell Viability % inhibition MCF-7 (4 uM Cpd); for percent inhibition of cell viability at 20 µM: MCF-7, 20 uM compound, read-out: Cell Viability % inhibition MCF-7 (20 uM Cpd)
Description: (§1) Cell Viability Assay Protocol
(§2) Cells were trypsinized, counted, and re-seeded into a 384-well tissue culture plate at 1000 cells per well in […] media. Cells were incubated at 37° C. in an atmosphere of 5% CO2 for 24 hours. Experimental compounds, initially dissolved in DMSO and diluted further in media were added to the wells and incubated for 72 hours. Cell viability was measured using the ATPlite 1step Luminescence Detection Assay system (Perkin Elmer) as described in the Assay kit instructions.
(§3) Cell Culture Lines and Media: (1) A2780 cells were cultured in RPMI media with 10% FBS and 1% antibiotics. Cells were typically split every 3-5 days at a 1:10 dilution; (2) PC3 cells were cultured in RPMI media with 10% FBS and 1% antibiotics. Cells were typically split every 3-5 days at a 1:4 dilution; (3) MCF-7 cells were grown in K-12F media with 10% FBS and 1% antibiotics. Cells were typically split every 3-5 days at a 1:10 dilution.

[3] = system: A2780 cells; assay: Cell Viability Assay (ATPlite 1step), A2780; assay type: cell-based; settings: Homo sapiens, 72 hours; for percent inhibition of cell viability at 4 µM: A2780, 4 uM compound, read-out: Cell Viability % inhibition A2780 (4 uM Cpd); for percent inhibition of cell viability at 20 µM: A2780, 20 uM compound, read-out: Cell Viability % inhibition A2780 (20 uM Cpd)
Description: as §1, §2, §3

[4] = system: PC3 cells; assay: Cell Viability Assay (ATPlite 1step), PC3; assay type: cell-based; settings: Homo sapiens, PC-3, 72 hours; for percent inhibition of cell viability at 4 µM: PC3, 4 uM compound, read-out: Cell Viability % inhibition PC3 (4 uM Cpd); for percent inhibition of cell viability at 20 µM: PC3, 20 uM compound, read-out: Cell Viability % inhibition PC3 (20 uM Cpd)
Description: as §1, §2, §3

Compound `Cc1ncc(C(=O)Nc2ccc(-c3cccc(S(=O)(=O)C4CC4)c3)cn2)cn1` [Compound 63, N-{5-[3-(cyclopropylsulfonyl)phenyl]pyridin-2-yl}-2-methylpyrimidine-5-carboxamide] has an IC50 [1] of 240 nM, a percent inhibition of cell viability at 4 µM [2] of 59.1% and a percent inhibition of cell viability at 20 µM [2] of 65.1%. It also gave a percent inhibition of cell viability at 4 µM [3] of 85.6%, a percent inhibition of cell viability at 20 µM [3] of 88% and a percent inhibition of cell viability at 4 µM [4] of 61.4%. It also gave a percent inhibition of cell viability at 20 µM [4] of 67.6%.

For `Cc1ncc(C(=O)Nc2ncc(-c3cccc(S(=O)(=O)C4CC4)c3)cc2F)cn1` [Compound 70, N-{5-[3-(cyclopropylsulfonyl)phenyl]-3-fluoropyridin-2-yl}-2-methylpyrimidine-5-carboxamide], the IC50 [1] was 10 nM, the percent inhibition of cell viability at 4 µM [2] was 61.1% and the percent inhibition of cell viability at 20 µM [2] was 66.1%. For the same compound, the percent inhibition of cell viability at 4 µM [3] was 86.3%, the percent inhibition of cell viability at 20 µM [3] was 87.8% and the percent inhibition of cell viability at 4 µM [4] was 58.4%. For the same compound, the percent inhibition of cell viability at 20 µM [4] was 65%.

Compound `CC[C@]1(O)C[C@H]2CN(CCc3c([nH]c4ccccc34)[C@@](C(=O)OC)(c3cc4c(cc3OC)N(C=O)[C@H]3[C@@](O)(C(=O)OC)[C@H](OC(C)=O)[C@]5(CC)C=CCN6CC[C@]43[C@@H]65)C2)C1` [Vincristine, reference compound] has an IC50 [1] of 680 nM.

For `Cc1ncc(C(=O)Nc2ccc(-c3cccc(NC4CC4)c3)cn2)cn1` [Compound 31, N-{5-[3-(cyclopropylamino)phenyl]pyridin-2-yl}-2-methylpyrimidine-5-carboxamide], the IC50 [1] was 320 nM, the percent inhibition of cell viability at 4 µM [3] was 70.9% and the percent inhibition of cell viability at 20 µM [3] was 71.2%. It also gave a percent inhibition of cell viability at 4 µM [4] of 51.8% and a percent inhibition of cell viability at 20 µM [4] of 43.7%.

In the case of `CNC(=O)c1cccc(-c2ccc(NC(=O)c3cncnc3)nc2)c1` [Compound 17, N-{5-[3-(methylcarbamoyl)phenyl]pyridin-2-yl}pyrimidine-5-carboxamide], the percent inhibition of cell viability at 4 µM [2] is reported as 56.3%, the percent inhibition of cell viability at 20 µM [2] is reported as 75.5% and the percent inhibition of cell viability at 4 µM [3] is reported as 84.5%. It also gave a percent inhibition of cell viability at 20 µM [3] of 91.7%, a percent inhibition of cell viability at 4 µM [4] of 62.8% and a percent inhibition of cell viability at 20 µM [4] of 81.7%.

`Cc1ncc(C(=O)Nc2ccc(-c3cc(C4CC4)cc(N4CCN(C)CC4)c3)cn2)cn1` [Compound 53] showed a percent inhibition of cell viability at 4 µM [2] of 11.3%, a percent inhibition of cell viability at 20 µM [2] of 39.6% and a percent inhibition of cell viability at 4 µM [3] of 15.1%. For the same compound, the percent inhibition of cell viability at 20 µM [3] was 74.8%, the percent inhibition of cell viability at 4 µM [4] was 12.3% and the percent inhibition of cell viability at 20 µM [4] was 67.1%.

`O=C(Nc1ncc(-c2ccccc2)cn1)c1cncnc1` [Compound 12, N-(5-phenylpyrimidin-2-yl)pyrimidine-5-carboxamide] was tested, and the percent inhibition of cell viability at 4 µM [2] was 53.7%, the percent inhibition of cell viability at 20 µM [2] was 69.8% and the percent inhibition of cell viability at 4 µM [3] was 82.7%. It also gave a percent inhibition of cell viability at 20 µM [3] of 91.3%, a percent inhibition of cell viability at 4 µM [4] of 59.7% and a percent inhibition of cell viability at 20 µM [4] of 69.2%.

With `Cc1ncc(C(=O)Nc2ccc(-c3cc(N4CCN(C)CC4)cc(S(=O)(=O)C4CC4)c3)cn2)cn1` [Compound 49, N-{5-[3-cyclopropylsulfonyl-5-(4-methylpiperazin-1-yl)phenyl]pyridin-2-yl}-2-methylpyrimidine-5-carboxamide] the percent inhibition of cell viability at 4 µM [2] was 28.1%, the percent inhibition of cell viability at 20 µM [2] was 48.3% and the percent inhibition of cell viability at 4 µM [3] was 16.9%. For the same compound, the percent inhibition of cell viability at 20 µM [3] was 59.5%, the percent inhibition of cell viability at 4 µM [4] was 19.4% and the percent inhibition of cell viability at 20 µM [4] was 39.7%.

`Cc1ncc(C(=O)Nc2ccc(-c3cccc(OC4CC4)c3)cn2)cn1` [Compound 27, N-{5-[3-(cyclopropyloxy)phenyl]pyridin-2-yl}-2-methylpyrimidine-5-carboxamide] was tested, and the IC50 [1] was 680 nM, the percent inhibition of cell viability at 4 µM [3] was 77.3% and the percent inhibition of cell viability at 20 µM [3] was 77.4%. The percent inhibition of cell viability at 4 µM [4] was 58.3% and the percent inhibition of cell viability at 20 µM [4] was 69.6%.

In the case of `Cc1ncc(C(=O)Nc2ccc(-c3cccc(C4CC4)c3)cn2)cn1` [Compound 23, N-[5-(3-cyclopropylphenyl)pyridin-2-yl]-2-methylpyrimidine-5-carboxamide], the IC50 [1] is reported as 890 nM, the percent inhibition of cell viability at 4 µM [3] is reported as 71.5% and the percent inhibition of cell viability at 20 µM [3] is reported as 80.3%. It also gave a percent inhibition of cell viability at 4 µM [4] of 53.7% and a percent inhibition of cell viability at 20 µM [4] of 66.2%.

`Cc1ncc(C(=O)Nc2ccc(-c3cc(NC4CC4)cc(N4CCN(C)CC4)c3)c(C)n2)cn1` [Compound 52, N-{5-[3-cyclopropylamino-5-(4-methylpiperazin-1-yl)phenyl]-6-methylpyridin-2-yl}-2-methylpyrimidine-5-carboxamide] showed a percent inhibition of cell viability at 4 µM [2] of -1.6%, a percent inhibition of cell viability at 20 µM [2] of 22.2% and a percent inhibition of cell viability at 4 µM [3] of 8%. The percent inhibition of cell viability at 20 µM [3] was 69.5%, the percent inhibition of cell viability at 4 µM [4] was 35% and the percent inhibition of cell viability at 20 µM [4] was 52.5%.

`O=C(Nc1ccc(-c2ccncc2)cn1)c1cncnc1` [Compound 13, N-(3,4′-bipyridin-6-yl)pyrimidine-5-carboxamide] showed a percent inhibition of cell viability at 4 µM [2] of 4.5%, a percent inhibition of cell viability at 20 µM [2] of 0.2% and a percent inhibition of cell viability at 4 µM [3] of 9.3%. The percent inhibition of cell viability at 20 µM [3] was 47.2%, the percent inhibition of cell viability at 4 µM [4] was 19.2% and the percent inhibition of cell viability at 20 µM [4] was 17.5%.

`Cc1ncc(C(=O)Nc2ccc(-c3csc(C)c3)cn2)cn1` [Compound 62, 2-methyl-N-[5-(5-methylthiophen-3-yl)pyridin-2-yl]pyrimidine-5-carboxamide] was tested, and the percent inhibition of cell viability at 4 µM [2] was 59.4%, the percent inhibition of cell viability at 20 µM [2] was 67% and the percent inhibition of cell viability at 4 µM [3] was 85.2%. It also gave a percent inhibition of cell viability at 20 µM [3] of 89.9%, a percent inhibition of cell viability at 4 µM [4] of 54.8% and a percent inhibition of cell viability at 20 µM [4] of 65.1%.

For `CC[C@]1(O)C[C@@H]2CN(CCc3c([nH]c4ccccc34)[C@@](C(=O)OC)(c3cc4c(cc3OC)N(C)[C@H]3[C@@](O)(C(=O)OC)[C@H](OC(C)=O)[C@]5(CC)C=CCN6CC[C@]43[C@@H]65)C2)C1` [Vinblastine, reference compound], the IC50 [1] was 200 nM.

`Cc1ccc(C(=O)Nc2ccc(-c3cccc(C4COC4)c3)cn2)cn1` [Compound 44, 6-methyl-N-{5-[3-(oxetan-3-yl)phenyl]pyridin-2-yl}pyridine-3-carboxamide] showed an IC50 [1] of 300 nM, a percent inhibition of cell viability at 4 µM [3] of 86.5% and a percent inhibition of cell viability at 20 µM [3] of 86.1%. For the same compound, the percent inhibition of cell viability at 4 µM [4] was 81.8% and the percent inhibition of cell viability at 20 µM [4] was 84.6%.

In the case of `Cc1ncc(C(=O)Nc2ncc(-c3cc(Cl)cc(N4CCNCC4)c3)cc2F)cn1` [Compound 54, N-{5-[3-chloro-5-(piperazin-1-yl)phenyl]-3-Fluoropyridin-2-yl}-2-methylpyrimidine-5-carboxamide], the percent inhibition of cell viability at 4 µM [2] is reported as 23.8%, the percent inhibition of cell viability at 20 µM [2] is reported as 42.6% and the percent inhibition of cell viability at 4 µM [3] is reported as -6.4%. It also gave a percent inhibition of cell viability at 20 µM [3] of 64.6%, a percent inhibition of cell viability at 4 µM [4] of 0.2% and a percent inhibition of cell viability at 20 µM [4] of 34.8%.

In the case of `COc1cccc(-c2ccc(NC(=O)c3cncnc3)nc2)c1` [Compound 18, N-[5-(3-methoxyphenyl)pyridin-2-yl]pyrimidine-5-carboxamide], the percent inhibition of cell viability at 4 µM [2] is reported as 58.8%, the percent inhibition of cell viability at 20 µM [2] is reported as 75.4% and the percent inhibition of cell viability at 4 µM [3] is reported as 88.5%. It also gave a percent inhibition of cell viability at 20 µM [3] of 91.5%, a percent inhibition of cell viability at 4 µM [4] of 66.2% and a percent inhibition of cell viability at 20 µM [4] of 76.5%.
